Results published in US8232294B2, “Amino ester derivatives, sailts thereof and methods of use” (Sunshine Lake Pharma Co., Ltd., priority 2009, dated 2012).
Structures can show the parent of a compound that is named as a salt.

How the values were obtained:
U87MG tumors = assay: Human U87MG glioblastoma xenograft tumor model; format: in vivo, female nude mice (BALB/cA nu/nu); details: 21 days; for decrease of mean tumor volume (TGI): Day 21, vs vehicle
Procedure: In a pilot study, the efficacy of compounds disclosed herein was evaluated in a standard murine model of tumorigenesis. Human tumor cells were generated with human glioblastoma cells (U87MG cells, ATCC) and were grown as subcutaneous tumors in 6-7 week old female nude mice (BALB/cA nu/nu, Shanghai SLAC Laboratory Animal, Co.) (n=10 for vehicle group, n=8 for each dosing group). When tumors reached a volume of 100-200 mm^3, animals were randomly divided into vehicle control (2% HPMC+1% Tween-80 in water) and compound groups. Subsequent administration of compound by oral gavage (10-100 mpk/dose, dissolved in purified water or 2% HPMC+1% Tween-80 in water) begins anywhere from day 0 to day 15 post tumor cell challenge and generally continues with once a day for the duration of the experiment.
(§1) Progression of tumor growth is assessed by tumor volumes and recorded as a function of time. The long (L) and short (W) axes of the subcutaneous tumors were measured with calipers twice weekly, and the tumor volume (TV) calculated as (L×W^2)/2). TGI was calculated from the difference between the median tumor volumes of vehicle-treated and drug-treated mice, expressed as a percentage of the median tumor volume of the vehicle-treated control group, by the following relation:
(§2) Initial statistical analysis is done by repeated measures analysis of variance (RMANOVA). Followed by Scheffe psot hoc testing for multiple comparisons. Vehicle alone (2% HPMC+1% Tween-80, or the like) is the negative control. Compounds disclosed herein were generally active at or less than 100 mpk.

MKN45 tumors = assay: Human MKN45 gastric adenocarcinoma xenograft tumor model; format: in vivo, female nude mice (BALB/cA nu/nu); details: for decrease of mean tumor volume (TGI): Day 18, vs vehicle
Procedure: Xenografts were also generated with human gastric tumor cells (MKN45 cells, ATCC) and were grown as subcutaneous tumors in 6-7 week old female nude mice (BALB/cA nu/nu, Shanghai SLAC Laboratory Animal, Co.) (n=10 for vehicle group, n=8 for each dosing group). When tumors reached a volume of 60-150 mm^3, animals were randomly divided into vehicle control (2% HPMC+1% Tween-80 in water) and compound groups. Subsequent administration of compound by oral gavage (10-60 mpk/dose, dissolved in purified water or 2% HPMC+1% Tween-80 in water) begins anywhere from day 0 to day 15 post tumor cell challenge and generally continues with once a day for the duration of the experiment.
as §1, §2

SMILES	decrease of mean tumor volume (TGI) (U87MG tumors; 10 mg/kg p.o. QD) [%]	decrease of mean tumor volume (TGI) (U87MG tumors; 30 mg/kg p.o. QD) [%]	decrease of mean tumor volume (TGI) (U87MG tumors; 100 mg/kg p.o. QD) [%]	inhibition of growth of U87MG tumors (U87MG tumors; all doses: 10, 30 and 100 mg/kg p.o. QD)	decrease of mean tumor volume (TGI) (MKN45 tumors; 10 mg/kg p.o. QD, 18 days) [%]	decrease of mean tumor volume (TGI) (MKN45 tumors; 30 mg/kg p.o. QD, 18 days) [%]	decrease of mean tumor volume (TGI) (MKN45 tumors; 60 mg/kg p.o. QD (dosed from days 0-10 and days 13-18)) [%]	inhibition of growth of MKN45 tumors (MKN45 tumors; all doses: 10, 30 and 60 mg/kg p.o. QD, 18 days)
COc1ccc2c(Oc3ccc(NC(=O)c4c(C)n(C[C@@H](C)OC(=O)CN)n(-c5ccccc5)c4=O)cc3F)ccnc2c1 [Example 53, (R)-1-(4-(3-fluoro-4-(7-methoxyquinolin-4-yloxy)phenylcarbamoyl)-5-methyl-3-oxo-2-phenyl-2,3-dihydropyrazol-1-yl)propan-2-yl 2-aminoacetate hydrochloride]	47	76	99	statistically significant, dose-dependent inhibition	–	–	–	–
Cc1c(C(=O)Nc2ccc(Oc3ccnc4cc(OCC5(OC(=O)CN)CC5)ccc34)c(F)c2)c(=O)n(-c2ccccc2)n1C [Example 72, 1-((4-(4-(2,3-dimethyl-5-oxo-1-phenyl-2,5-dihydro-1H-pyrazole-4-carboxamido)-2-fluorophenoxy)quinolin-7-yloxy)methyl)cyclopropyl 2-aminoacetate hydrochloride]	–	–	–	–	29	62	87	statistically significant, dose-dependent inhibition
